Test results: patent US9540364B2, “Benzimidazole tetrahydrofuran derivatives” (Merck Sharp & Dohme Corp., priority 2012, dated 2017)
pEC50: −log10 of the molar value.

Assays:
[1] = target: recombinant human AMPK complex 7 (containing α2β1γ1) (Homo sapiens (Human), UniProt P54646+Q9Y478); assay: In vitro AMPK activation assay (AMPKSAMSF); format: biochemical; details: for pEC50: inflection point reflecting 50% of the maximum activation; for Emax: recombinant human AMPK complex 7 (α2β1γ1), 10-point titration, read-out: % Maximum AMP Activation of human AMPK Complex 7
recombinant human AMPK complex 7 (containing α2β1γ1), sequence (P54646 whole entry): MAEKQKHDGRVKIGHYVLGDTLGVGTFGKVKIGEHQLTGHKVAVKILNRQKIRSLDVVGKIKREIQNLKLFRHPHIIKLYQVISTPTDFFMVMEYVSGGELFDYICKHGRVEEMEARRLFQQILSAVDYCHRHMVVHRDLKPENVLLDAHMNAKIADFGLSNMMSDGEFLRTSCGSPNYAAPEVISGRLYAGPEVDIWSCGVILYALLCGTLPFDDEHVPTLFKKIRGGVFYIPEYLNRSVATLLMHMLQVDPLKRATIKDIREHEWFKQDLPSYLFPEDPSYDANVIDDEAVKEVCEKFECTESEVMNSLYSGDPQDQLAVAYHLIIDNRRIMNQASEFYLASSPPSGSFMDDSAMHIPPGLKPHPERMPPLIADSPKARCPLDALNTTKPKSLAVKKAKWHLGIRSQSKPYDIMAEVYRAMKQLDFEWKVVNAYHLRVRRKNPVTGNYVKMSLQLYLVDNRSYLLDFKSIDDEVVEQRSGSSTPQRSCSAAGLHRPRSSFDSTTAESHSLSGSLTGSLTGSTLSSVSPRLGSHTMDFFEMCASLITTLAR
recombinant human AMPK complex 7 (containing α2β1γ1), sequence (Q9Y478 whole entry): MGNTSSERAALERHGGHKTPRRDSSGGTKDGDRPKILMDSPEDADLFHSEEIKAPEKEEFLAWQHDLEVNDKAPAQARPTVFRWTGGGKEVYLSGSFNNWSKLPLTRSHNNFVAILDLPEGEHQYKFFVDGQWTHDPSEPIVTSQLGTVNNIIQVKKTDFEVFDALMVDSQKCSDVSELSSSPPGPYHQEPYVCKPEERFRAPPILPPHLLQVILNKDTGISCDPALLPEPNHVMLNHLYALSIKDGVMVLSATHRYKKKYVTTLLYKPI
recombinant human AMPK complex 7 (containing α2β1γ1), sequence (P54619 whole entry partner): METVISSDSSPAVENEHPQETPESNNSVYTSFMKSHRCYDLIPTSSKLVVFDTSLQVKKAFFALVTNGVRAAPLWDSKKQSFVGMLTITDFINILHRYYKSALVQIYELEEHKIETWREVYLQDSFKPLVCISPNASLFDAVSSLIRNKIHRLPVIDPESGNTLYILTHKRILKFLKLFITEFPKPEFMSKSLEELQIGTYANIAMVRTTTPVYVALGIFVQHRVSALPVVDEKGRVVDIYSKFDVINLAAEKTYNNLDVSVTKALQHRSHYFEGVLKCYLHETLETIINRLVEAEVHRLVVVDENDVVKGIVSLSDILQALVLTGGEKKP
Method: The recombinant human AMPK complex 1 (containing α1β1γ1) or AMPK complex 7 (containing α2β1γ1) was obtained from baculovirus expression system. Recombinant viruses were generated by cotransfection of AMPK/pBacPak9 clones with Baculogold baculovirus DNA (Pharmingen) in spodoptera frugiperda 21 cells according to the manufacturer's instructions. Each round of virus amplification was performed for 5 days in Grace's medium containing 10% serum. Virus that had been subjected to three rounds of amplification was used for all protein production procedures. To express the AMPK complex, sf21 cells were adapted to serum free medium (SF900 II, Invitrogen) by sequential dilution from serum containing stocks into SF900II medium and maintained in shaker flasks at 90 rpm at 27° C. The recombinant AMPK enzyme complex was produced by triple infection, one recombinant virus for each of the subunits, in sf21 cells under serum free conditions. Cells were infected in log phase, 1×10^6 cells/ml, at a multiplicity of infection of ˜5. Cells were harvested by centrifugation at 10,000×g for 15 minutes after 72 hours of infection with viruses. The insect cell pellet from 2 liters of culture was resuspended in 50 ml lysis buffer (20 mM Tris-HCl, 50 mM NaCl, 50 mM NaF, 30 mM Na PPi, 0.25 M sucrose, 10 mM ZnCl2, 2 mM DTT, 0.4 mg/ml digitonin) and subjected to two cycles of freeze-thaw lysis in a dry-ice ethanol bath. Insoluble material was removed by centrifugation at 10,000×g and the supernatant was fractionated with use of polyethylene glycol (PEG). The protein fraction precipitating between 2.5 and 6% PEG was used for further purification using a Blue-Sepharose step (Zhou et al, J. Clin. Invest. 108, 1167-1174, 2001).
The in vitro AMPK activation assay is performed in a volume of 30 μl in a 384-well plate. Enzyme reactions were assembled in the microtiter plate by adding 15 μl of 2× enzyme in assay buffer (20 mM HEPES, pH 7.3, 5 mM MgCl2, 3 mM DTT, 0.01% Brij 35 and CamK Kinase, to activate AMPK) to wells which contained either DMSO or compound. The reaction was initiated with the addition of 15 μl 2× substrate mixture containing 200 μM ATP, and 3.0 μM fluorescently labeled SAMS (5-FAM-HMRSAMSGLHLVKRR-COOH) in assay buffer. After 45-minute incubation at 25° C., the reaction was stopped by the addition of 70 μl stop buffer (100 mM HEPES, pH 7.3, 40 mM EDTA, 0.015% Brij 35). Phosphorylated 5-FAM SAMS product is assessed using a Caliper EZ Reader LabChip microfluidics reader. Product conversion is determined by calculating the peak heights of the substrate and product and reporting the product/(product+substrate) peak ratio. The 10-point titration data were expressed as % maximum AMP activation. The results were plotted using 4 parameter fit and the inflection point reflecting 50% of the maximum activation was reported as the EC50.

ob/ob and db/db mice = details: following 8 weeks of administration; cited from earlier work

Structure (SMILES) | pEC50 [1] | Emax [1] [%] | blood glucose reduction (ob/ob and db/db mice) [%]
OC[C@H]1OC[C@@H](Oc2nc3c(F)c(-c4ccc(-c5ccc(-n6cccn6)cc5)cc4)c(F)cc3[nH]2)[C@@H]1O [Example 17] | 7.70 | 313 | –
OC[C@H]1OC[C@@H](Oc2nc3cc(-c4ccc(-c5ccc(-c6nccs6)cc5)cc4)c(Cl)cc3[nH]2)[C@@H]1O [Example 12] | 7.12 | 170 | –
OC[C@H]1OC[C@@H](Oc2nc3cc(-c4ccc(-c5ccccc5)cc4)c(Cl)cc3[nH]2)[C@@H]1O [Example 1, (2R,3R,4R)-4-[[6-chloro-5-(4-phenylphenyl)-1H-benzimidazol-2-yl]oxy]-2-(hydroxymethyl)tetrahydrofuran-3-ol] | 6.67 | 301 | –
Cc1cc(-c2ccc(-c3ccc(-c4c(F)cc5[nH]c(O[C@@H]6CO[C@H](CO)[C@H]6O)nc5c4F)cc3)cc2)[nH]n1 [Example 20] | 7.30 | 246 | –
CC(CO)(CO)c1ccc(-c2ccc(-c3c(F)cc4[nH]c(O[C@@H]5CO[C@H](CO)[C@H]5O)nc4c3F)cc2)cc1 [Example 16] | 8.22 | 313 | –
CNC(=O)c1ccc(-c2ccc(-c3c(F)cc4[nH]c(O[C@@H]5CO[C@H](CO)[C@H]5O)nc4c3F)cc2)cc1 [Example 14] | 8.40 | 340 | –
Cc1cc(-c2ccc(-c3ccc(-c4cc5nc(O[C@@H]6CO[C@H](CO)[C@H]6O)[nH]c5cc4Cl)cc3)cc2)[nH]n1 [Example 4] | 6.98 | 172 | –
OC[C@H]1OC[C@@H](Oc2nc3cc(-c4ccc(-c5ccc(C6CNCCO6)cc5)cc4)c(Cl)cc3[nH]2)[C@@H]1O (stereo partly drawn) [Example 10] | 7.47 | 210 | –
OC[C@H]1OC[C@@H](Oc2nc3c(F)c(-c4ccc(-c5ccc(C6CNCCO6)cc5)cc4)c(F)cc3[nH]2)[C@@H]1O (stereo partly drawn) [Example 18] | 7.47 | 316 | –
CNC(=O)c1ccc(-c2ccc(-c3cc4nc(O[C@@H]5CO[C@H](CO)[C@H]5O)[nH]c4cc3Cl)cc2)cc1 [Example 3] | 8.10 | 262 | –
OC[C@H]1OC[C@@H](Oc2nc3c(F)c(-c4ccc(-c5ccc(-c6nccc(O)n6)cc5)cc4)c(F)cc3[nH]2)[C@@H]1O [Example 15] | 8.52 | 299 | –
OC[C@H]1OC[C@@H](Oc2nc3c(F)c(-c4ccc(-c5ccc(-n6ccnn6)cc5)cc4)c(F)cc3[nH]2)[C@@H]1O [Example 13] | 8.30 | 283 | –
OC[C@H]1OC[C@@H](Oc2nc3cc(-c4ccc(-c5cccc(F)c5)cc4)c(Cl)cc3[nH]2)[C@@H]1O [Example 2] | 5.37 | 137 | –
N#Cc1ccc(-c2ccc(-c3c(F)cc4[nH]c(O[C@@H]5CO[C@H](CO)[C@H]5O)nc4c3F)cc2)c(F)c1 [Example 21] | 7.42 | 230 | –
OC[C@H]1OC[C@@H](Oc2nc3cc(-c4ccc(-c5ccc(-n6ccnn6)cc5)cc4)c(Cl)cc3[nH]2)[C@@H]1O [Example 7] | 8.10 | 233 | –
N#Cc1ccc(-c2ccc(-c3cc4nc(O[C@@H]5CO[C@H](CO)[C@H]5O)[nH]c4cc3Cl)cc2)c(F)c1 [Example 5] | 6.68 | 288 | –
OC[C@H]1OC[C@@H](Oc2nc3cc(-c4ccc(-c5ccc(-n6cccn6)cc5)cc4)c(Cl)cc3[nH]2)[C@@H]1O [Example 9] | 7.48 | 269 | –
OC[C@H]1OC[C@@H](Oc2nc3c(F)c(-c4ccc(-c5ccc(-c6nccs6)cc5)cc4)c(F)cc3[nH]2)[C@@H]1O [Example 19] | 7.17 | 251 | –
NC(=O)c1ncn([C@@H]2O[C@H](CO)[C@@H](O)[C@H]2O)c1N [AICAR] | – | – | 35
CC(CO)(CO)c1ccc(-c2ccc(-c3cc4nc(O[C@@H]5CO[C@H](CO)[C@H]5O)[nH]c4cc3Cl)cc2)cc1 [Example 8] | 8.30 | 278 | –
